Laboratory results from patent US20230174523A1, “BENZENESULFONAMIDE DERIVATIVES AS TRAP1 MODULATORS AND USES THEREOF” (Amathus Therapeutics, Inc., priority 2020, published 2023).

Target: T1, TRAP1 enzyme (Homo sapiens, UniProt Q12931)
T1 sequence (Q12931 60-704): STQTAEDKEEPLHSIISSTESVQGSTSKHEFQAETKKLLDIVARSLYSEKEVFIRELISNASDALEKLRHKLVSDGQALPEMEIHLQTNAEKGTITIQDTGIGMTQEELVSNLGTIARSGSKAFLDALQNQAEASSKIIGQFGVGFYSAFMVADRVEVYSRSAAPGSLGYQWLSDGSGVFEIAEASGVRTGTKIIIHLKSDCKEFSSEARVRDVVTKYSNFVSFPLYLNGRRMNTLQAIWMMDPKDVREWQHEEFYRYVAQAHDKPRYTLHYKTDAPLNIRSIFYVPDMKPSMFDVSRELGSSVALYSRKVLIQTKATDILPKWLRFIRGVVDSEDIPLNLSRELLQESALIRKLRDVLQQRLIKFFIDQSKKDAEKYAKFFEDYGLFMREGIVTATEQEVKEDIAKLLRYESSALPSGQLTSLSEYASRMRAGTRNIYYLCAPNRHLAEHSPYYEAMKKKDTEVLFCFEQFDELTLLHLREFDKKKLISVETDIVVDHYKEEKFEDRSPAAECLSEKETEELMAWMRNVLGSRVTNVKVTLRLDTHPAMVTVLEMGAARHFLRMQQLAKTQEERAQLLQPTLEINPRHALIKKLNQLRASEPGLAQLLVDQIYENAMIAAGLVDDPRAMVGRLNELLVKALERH
Assay: ADP Glo assay of TRAP1 ATPase activity
Format: biochemical
Conditions: for EC50: TRAP1 ATPase activation, 150 nM Trap1, 20 μM ATP, geometric mean, read-out: ADP GLO DRC: GeoMean EC50; for Emax: read-out: ADP GLO DRC: Mean Emax
Procedure: Potency of test compounds to modulate the ATPase activity of TRAP1 enzyme was evaluated using ADP Glo assay. The assay is based on quantification of the ADP generated from ATP in the ATPase reaction. The assay is performed in two steps: first, after the ATPase reaction, an equal volume of ADP-Glo™ Reagent is added to terminate the ATPase reaction and deplete the remaining ATP. Second, the Kinase Detection Reagent is added to simultaneously convert ADP to ATP and allow the newly synthesized ATP to be measured using a luciferase/luciferin reaction.
All the assays were carried out in a 384-well Proxiplate. The buffer used was 25 mM Pipes pH-7.5, 40 mM KCl, 0.05 mM MgCl2, 0.025% BSA, 0.316 mM EGTA, 0.003% Empigen, 0.01% Igepal. 150 nM Trap1 enzyme was incubated with various concentrations of the test compound (0.79 μM-100 μM) at 37° C. for 30 mins (except in blank wells). 20 μM ATP was added to each well to start the reaction. The plate was spun for 1 min at 1200 rpm and then incubated at 37° C. for 60 mins. 5 μl of ADP Glo reagent was added to all the wells and spun the plate for 1 min at 1200 rpm and kept it on a shaker at ambient temperature for 60 mins. 10 μl of kinase detection mix was added to all the wells and the plate was read for Luminescence at 495 nm. The amount of ADP released was estimated from ATP/ADP standard curve generated at the same experimental conditions. Emax (Maximal percent activation) and EC50 (concentration for half maximal activation) were estimated by fitting the dose response data to a sigmoidal curve fitting equation using Graphpad Prism software V. 8.

| Structure (SMILES) | EC50 [µM] | Emax [%] |
| --- | --- | --- |
| COc1ccc(NC(=O)c2cccc(-n3cncn3)c2)cc1S(=O)(=O)Nc1c(C)cccc1C [Compound 1126] | 10 to 20 | 160 to 199 |
| COc1ccc(NC(=O)c2cnc(-c3ccccc3)s2)cc1S(=O)(=O)Nc1ccc(Cl)cc1 [Compound 468] | < 10 | 160 to 199 |
| COc1ccc(NC(=O)c2cccc(C(=O)N(C)C)c2)cc1S(=O)(=O)Nc1c(C)cccc1C [Compound 1095] | 20 to 100 | 160 to 199 |
| C=C(C)c1cc(OC)c(S(=O)(=O)Nc2ccc(C(F)(F)F)cc2)cc1NC(=O)c1ncc(-c2ccccc2)o1 [Compound 1189] | 20 to 100 | > 300 |
| COc1ccc(NC(=O)c2cccc(-c3csc(C)n3)c2)cc1S(=O)(=O)Nc1c(C)cccc1C [Compound 1290] | < 10 | 160 to 199 |
| COc1ccc(NC(=O)c2cn(C(C)C)cc2C(F)(F)F)cc1S(=O)(=O)Nc1c(C)cccc1C [Compound 1103] | < 10 | 160 to 199 |
| N#Cc1ccc(C(=O)Nc2ccc(F)c(S(=O)(=O)Nc3ccc(Cl)cc3)c2)c(C(F)(F)F)n1 [Compound 827] | 20 to 100 | 123 to 159 |
| COc1ccc(NC(=O)c2nc(-c3ccccc3)oc2C)cc1S(=O)(=O)Nc1c(C)cccc1C [Compound 1139] | < 10 | 123 to 159 |
| COc1cnc(Cl)c(C(=O)Nc2ccc(OC)c(S(=O)(=O)Nc3c(C)cccc3C)c2)c1 [Compound 1072] | 20 to 100 | 160 to 199 |
| COc1ccc(NC(=O)c2c(C)noc2-c2ccccc2)cc1S(=O)(=O)Nc1c(C)cccc1C [Compound 1244] | 10 to 20 | 123 to 159 |
| COc1ccc(NC(=O)c2ccnn2-c2ccccc2)cc1S(=O)(=O)Nc1c(C)cccc1C [Compound 1061] | 10 to 20 | 200 to 300 |
| CCc1noc(CC)c1C(=O)Nc1ccc(F)c(S(=O)(=O)Nc2ccc(Cl)cc2)c1 [Compound 830] | 20 to 100 | 160 to 199 |
| COc1ccc(NC(=O)c2cc(C)cs2)cc1S(=O)(=O)Nc1c(C)cccc1C [Compound 1101] | 10 to 20 | 160 to 199 |
| COc1ccc(NC(=O)c2ccnc(SC)n2)cc1S(=O)(=O)Nc1c(C)cccc1C [Compound 1039] | 20 to 100 | 160 to 199 |
| COc1ccc(NC(=O)c2cnn(-c3ccccc3)c2)cc1S(=O)(=O)Nc1c(C)cccc1C [Compound 1292] | 10 to 20 | 200 to 300 |
| COc1ccc(NC(=O)c2csc3c2CCCC3)cc1S(=O)(=O)Nc1c(C)cccc1C [Compound 1144] | < 10 | 160 to 199 |
| COc1ccc(NC(=O)c2ccc(C)nc2OC)cc1S(=O)(=O)Nc1c(C)cccc1C [Compound 1021] | < 10 | 200 to 300 |
| COc1ccc(NC(=O)c2ncc(-c3ccccc3)o2)cc1S(=O)(=O)Nc1c(C)ccnc1OC [Compound 1666] | 10 to 20 | 123 to 159 |
| COc1ccc(NC(=O)c2nc(C(C)C)cs2)cc1S(=O)(=O)Nc1c(C)cccc1C [Compound 1169] | < 10 | 160 to 199 |
| CCc1nccc(C)c1NS(=O)(=O)c1cc(NC(=O)c2ncc(-c3ccccc3)o2)ccc1OC [Compound 1697] | 20 to 100 | 123 to 159 |
| COc1ccc(NC(=O)c2cncc(Br)c2C)cc1S(=O)(=O)Nc1c(C)cccc1C [Compound 1107] | 10 to 20 | 200 to 300 |
| COc1ccc(NC(=O)c2n[nH]c3c2CCCC3)cc1S(=O)(=O)Nc1c(C)cccc1C [Compound 1235] | 10 to 20 | 200 to 300 |
| O=C(Nc1ccc(F)c(S(=O)(=O)Nc2ccc(Cl)cc2)c1)c1cccc(-n2cncn2)c1 [Compound 1220] | 20 to 100 | 123 to 159 |
| COc1ccc(NC(=O)c2ccc(C(C)(C)C)nc2)cc1S(=O)(=O)Nc1c(C)cccc1C [Compound 1052] | 20 to 100 | 160 to 199 |
| COc1ccc(NC(=O)c2ccnc(Cl)c2C)cc1S(=O)(=O)Nc1c(C)cccc1C [Compound 1067] | 20 to 100 | 160 to 199 |

| Structure (SMILES) | EC50 [µM] | Emax [%] |
| --- | --- | --- |
| COc1ccc(NC(=O)c2cccc(-c3cccnc3)c2)cc1S(=O)(=O)Nc1c(C)cccc1C [Compound 1225] | < 10 | 200 to 300 |
| COc1ccc(NC(=O)c2cnc(-c3c(OC)cccc3OC)[nH]2)cc1S(=O)(=O)Nc1ccc(Cl)cc1 [Compound 1969] | 10 to 20 | 200 to 300 |
| CCN1CCN(c2ccc(C(=O)Nc3ccc(OC)c(S(=O)(=O)Nc4c(C)cccc4C)c3)cc2)CC1 [Compound 1283] | 20 to 100 | 123 to 159 |
| COc1ccc(NC(=O)c2cnc(-c3ccccc3)[nH]2)cc1S(=O)(=O)N(CCCCCCN)c1ccc(Br)cc1 [Compound 454, N-(3-(N-(6-aminohexyl)-N-(4-bromophenyl)sulfamoyl)-4-methoxyphenyl)-2-phenyl-1H-imidazole-5-carboxamide] | < 10 | 160 to 199 |
| COc1ccc(NC(=O)c2csc3c2C2CCN3CC2)cc1S(=O)(=O)Nc1c(C)cccc1C [Compound 1945] | 10 to 20 | 160 to 199 |
| COc1ccc(NC(=O)c2ccc3ncsc3c2)cc1S(=O)(=O)Nc1c(C)cccc1C [Compound 1233] | 10 to 20 | 160 to 199 |
| COc1ccc(NC(=O)c2ccc3ocnc3c2)cc1S(=O)(=O)Nc1c(C)cccc1C [Compound 1272] | 20 to 100 | 123 to 159 |
| CCc1cc(C(=O)Nc2ccc(F)c(S(=O)(=O)Nc3ccc(Cl)cc3)c2)cc(C)n1 [Compound 1286] | 20 to 100 | 123 to 159 |
| COc1ccc(NC(=O)c2cccc3ccn(C)c23)cc1S(=O)(=O)Nc1c(C)cccc1C [Compound 1060] | < 10 | 200 to 300 |
| COc1ccc(NC(=O)c2cnc(-c3ccccc3)s2)cc1S(=O)(=O)Nc1c(C)cccc1C [Compound 467] | < 10 | 160 to 199 |
| COc1ccc(NC(=O)c2nccs2)cc1S(=O)(=O)Nc1c(C)cccc1C [Compound 1171] | 20 to 100 | 160 to 199 |
| COc1ccc(NC(=O)c2ncc(-c3ccccc3)o2)cc1S(=O)(=O)Nc1c(C)cc(C)nc1C [Compound 1575] | 20 to 100 | 123 to 159 |
| Cn1ncc(I)c1C(=O)Nc1ccc(F)c(S(=O)(=O)Nc2ccc(Cl)cc2)c1 [Compound 689] | 20 to 100 | 160 to 199 |
| COc1ccc(NC(=O)c2cnc(C3CC3)o2)cc1S(=O)(=O)Nc1c(C)cccc1C [Compound 1175] | 20 to 100 | 160 to 199 |
| COc1ccc(NC(=O)c2ncccc2C)cc1S(=O)(=O)Nc1c(C)cccc1C [Compound 1167] | 10 to 20 | 123 to 159 |
| COc1ccc(NC(=O)c2ncc(-c3ccccc3)o2)cc1S(=O)(=O)Nc1cccc(C(F)(F)F)n1 [Compound 1805] | 10 to 20 | 200 to 300 |
| Cc1noc(C(C)C)c1C(=O)Nc1ccc(F)c(S(=O)(=O)Nc2ccc(Cl)cc2)c1 [Compound 751] | 10 to 20 | 160 to 199 |
| COc1ccc(NC(=O)c2c(C(F)(F)F)coc2C)cc1S(=O)(=O)Nc1c(C)cccc1C [Compound 1111] | 10 to 20 | 160 to 199 |
| COc1ccc(NC(=O)c2ncc(-c3ccccc3)o2)cc1S(=O)(=O)Nc1c(C)ccc2ncccc12 [Compound 1605] | < 10 | 160 to 199 |
| COc1ccc(NC(=O)c2ccc(N3CCCC3)c(F)c2)cc1S(=O)(=O)Nc1c(C)cccc1C [Compound 1004] | < 10 | 160 to 199 |
| COc1ccc(NC(=O)c2cn(C)c3ncccc23)cc1S(=O)(=O)Nc1ccc(Cl)cc1 [Compound 1345] | < 10 | 160 to 199 |
| COc1ccc(NC(=O)c2ncn(-c3ccccc3)n2)cc1S(=O)(=O)Nc1c(C)cccc1C [Compound 1270] | 10 to 20 | 200 to 300 |
| COc1ccc(NC(=O)c2nn(C(C)C)c3ccccc23)cc1S(=O)(=O)Nc1c(C)cccc1C [Compound 1109] | < 10 | 123 to 159 |
| COc1ccc(NC(=O)c2ccc3ncoc3c2)cc1S(=O)(=O)Nc1c(C)cccc1C [Compound 1236] | 20 to 100 | 123 to 159 |
